Results on one compound are retold here after patent US20170137458A1, “OXYSTEROLS FOR USE IN THE TREATMENT AND PREVENTION OF DISEASES CAUSED BY VIRUSES” (priority 2014, published 2017).

SMILES strings stand for the structures.

The test system of test [1] is human rotavirus Wa. The test can be described thus: Infectivity assay for rotavirus repeated on Caco2 cells, strain Wa. Format: cell-based. Particulars: Caco-2. From the text: The results of the antiviral assays performed treating with 25OHC and 27OHC were confirmed repeating the infectivity assays on Caco2 cells.
Test [2] relates to human rotavirus. Briefly: Target identification by siRNA sensitization (TISS), human rotavirus, Caco2 cells. The note with it: oxysterol at its EC50.
Procedure: This mechanism of action vis-à-vis the rotavirus was therefore investigated, performing a target identification assay by means of sensitization with short interfering RNA (siRNA). The Caco2 cells (for the experiments with human rotavirus) or the HeLa cells (for the experiments with human papillomavirus) were seeded in a plate with 24 wells; during seeding, the cells were transfected with siRNA specific for OSBP and VAPA (at a concentration of 20 nM). […] After one day, the medium was removed and the cells inoculated with the respective viruses in the same time, temperature and MOI conditions described in the protocols of the infectivity or neutralization assays. The number of infected cells was evaluated as described in the preceding paragraphs.
The subject of test [3] is human rotavirus DS-1. The test can be described thus: Infectivity assay for rotavirus, MA104 cells, strain DS-1.
Procedure: (§1) The strains of human rotavirus Wa (ATCC® VR-2018), WI61 (ATCC® VR-2551), HRV 408 (ATCC® VR-2273), HRV 248 (ATCC® VR-2274) and DS-1 (ATCC® VR-2550) were acquired from the American Tissue Culture Collection (ATCC); the viruses were activated with 5 μg/ml porcine pancreatic trypsin of type IX (Sigma, St. Louis, Mo.) for 30 minutes at 37° C. and propagated in MA104 cells using MEM containing 0.5 μg of trypsin per ml as described previously (27).
(§2) The antiviral effectiveness of the oxysterols of the invention was determined by means of infectivity inhibition assay. The assays were performed with confluent monolayers of MA104 cells seeded in plates with 96 wells, as described previously (28). […] The control samples were prepared by treating the cells with culture medium with the addition of equal volumes of ethanol. The cells were then washed with medium, and the rotavirus infection was performed at a multiplicity of infection (MOI) of 0.02. After the infection, the cells were washed with medium and incubated at 37° C. in an incubator humidified at 5% (vol/vol) CO2-95% (vol/vol) of air. After 16 hours, the infected cells were fixed with a cold acetone-methanol mixture (50:50), and the virus titres were determined by means of indirect immunocytochemistry. The inhibition of the virus infectivity was expressed as a percentage comparing the mean number of infective events in the treated and non-treated samples±the standard deviations. Where possible, the values of the oxysterol concentrations able to determine 50% or 90% of the antiviral effect (EC50 and EC90 respectively) were calculated by means of regression analysis using the dose-response curves generated by the experimental data, with the use of PRISM 5.00 (GraphPad Software, San Diego, Calif., USA).
Test [4] deals with human rhinovirus 1A. The test can be described thus: Infectivity assay with rhinovirus (plaque count, HeLa cells).
Procedure: The human rhinovirus 1A (ATCC® VR-1559) was acquired from ATCC. The virus was propagated in HeLa cells, at 33° C. with 5% of CO2. When the cytopathic effect (CPE) had fully developed, cells and supernatants were collected, frozen and thawed three times, clarified and divided into aliquots. The viruses were kept at −70° C. The rhinovirus titres were determined by means of the standard plaque assay. In short, the HeLa cells were seeded 2 days prior to the infection in plates with 96 wells, reaching 60%-70% confluence at the time of the infection. The viral suspension was serially diluted in DMEM supplemented with 2% fetal bovine serum and inoculated; the infected wells were incubated at 33° C. for 1 hour, allowing the viruses to adhere and enter the cells. The cells were subsequently washed with medium and covered with a 1:1 mixture of 1.6% SeaPlaque agarose (BioWhittaker Molecular Applications) and DMEM 2X [26.76 g DMEM (Gibco BRL), 20 ml of L-glutamine (Gibco BRL), 4.4 g of sodium bicarbonate (Sigma, St. Louis, Mo.), FBS 40 ml (Sigma, St. Louis, Mo.) and 1000 ml of water]. The plates were incubated at 33° C. for 3 days. At the end of the incubation, the plates were fixed with 7.5% formaldehyde (Fluka) and coloured with crystal violet (Sigma, St. Louis, Mo.). The number of plaques formed was then counted; the virus titres were expressed in terms of plaque-forming units per ml (PFU/ml).
The HeLa cells, kept in DMEM supplemented with 10% FBS and 1% Zell Shield, were seeded (at 8×10^4 cells/well) in plates with 24 wells. The medium was removed and the cells were infected with 200 microlitres/well containing approximately 30 PFU of a stock of human rhinovirus 1A. The infected cells were incubated at 33° C. for 1 h, allowing the virus to adhere and enter the cells. […] The plates were incubated at 33° C. for 5 days. After the incubation, the plates were fixed with formaldehyde at 7.5% (Fluka), coloured with crystal violet (Sigma, St. Louis, Mo.) and the number of plaques formed was counted. The oxysterol concentration values able to determine 50% or 90% of the antiviral effect (EC50 and EC90 respectively) were calculated by means of regression analysis using the dose-response curves generated by the experimental data, using PRISM 5.00 (GraphPad Software, San Diego, Calif., USA).
Test [5] relates to human rhinovirus 1A. The test can be described thus: Rhinovirus yield reduction assay. The note with it: HeLa cells, 5.6 μM after infection, collected 5 days after the infection.
Procedure: Each well was inoculated with 200 μl of a stock of human rhinovirus 1A containing approximately 30 PFU per well and incubated for 1 hour. […] The infected cells and the supernatants were collected 5 days after the infection (when a complete CPE was visible), and titred by means of the standard plaque method, as described above.
The test system of test [6] is TLR3. The test can be described thus: Quantitative real time RT-PCR of TLR-3 in Caco2 cells. Format: cell-based, human. The note with it: CaCo2 intestinal cells, 1.9 μM, 30 minutes to 6 hours. The protocol: The Caco2 cells were cultivated in DMEM medium containing 10% serum and seeded in 25 cm^2 flasks (8 million confluence cells). The next day the cells were treated, in DMEM medium containing 2% serum, with 1.9 μM 25OHC or 27OHC (dissolved in ethanol) for 30 minutes, 1, 2, 3, 4, 5 or 6 hours. Extraction of the total RNA was performed using the TRIzol Reagent (Applied Biosystems, Monza, Italy) and the quantity and purity (A260/A280 ratio) of the extracted RNA were spectrophotometrically measured. Subsequently, 2 μg of RNA were retrotranscribed using the High-Capacity cDNA Reverse Transcription Kit (Applied Biosystems). Quantitative RT-PCR was performed with 30 ng of cDNA using the “TaqMan Gene Expression Assay kits” for TLR-3 and β-actin, TaqMan Fast Universal PCR Master Mix, and 7500 Fast Real-Time PCR System (Applied Biosystems). For each gene considered, the threshold cycle (Ct) was determined and the results were normalized using β-actin as a reference gene. The relative quantification was performed using a mathematical method previously published (29). In FIGS. 1a-1b, the results are reported as increment of the genic expression (Fold change, Fc) of the treated samples with respect to the controls.
In general terms: Real-time PCR tracks product formation cycle by cycle.

For test [7], the system named is human rotavirus (strain Wa). Briefly: Rotavirus yield reduction assay. Format: cell-based. Here is the method:
The cells were treated at 37° C. with 25-, 27-, 7α-, 7β-hydroxycholesterol or 7-ketocholesterol at 5.6 μM for 20 hours, then washed with medium and infected with the human rotavirus at an MOI of 0.02 (strain Wa) activated with trypsin. After one hour, the cells were washed and fresh medium was added supplemented with 0.5 μg/ml of porcine trypsin. […] The assay was performed in triplicate and the results were confirmed on Caco2 cells. In an alternative protocol, the MA104 cells were treated with oxysterols—at the concentration indicated above—after the viral inoculum. The one-way variance analysis (ANOVA), followed by the Bonferroni test, was used to evaluate the statistical significance of the virus titre differences between the treated and non-treated samples. The significance was fixed at 95%.
The results of the pre-treatment assays are illustrated in FIGS. 5 (MA104 cells) and 6 (Caco2 cells).

Test [8] relates to human rotavirus HRV 408. Briefly: Infectivity assay for rotavirus, MA104 cells, strain HRV 408.
Procedure: as §1, §2
The test system of test [9] is rhinovirus. Particulars: cited from earlier work.
For test [10], the system named is human rotavirus HRV 248. The test can be described thus: Infectivity assay for rotavirus, MA104 cells, strain HRV 248.
Procedure: as §1, §2
Setting [11] is: pre-treatment assay, 20 hours prior to the infection.

As a reminder, the EC50 is the concentration giving half of the maximal effect. By EC90 is commonly meant the point of the concentration-response curve where the effect stands at 90%. Regarding `C[C@H](CCCC(C)(C)O)[C@H]1CC[C@H]2[C@@H]3CC=C4C[C@@H](O)CC[C@]4(C)[C@H]3CC[C@]12C` [25OHC, 25-hydroxycholesterol], the EC50 is 190 nM in [1]; 270 nM in test [3]; 160 nM in test [4] (post-infection treatment assay); 290 nM in test [4] (setting [11]); 120 nM in [8]; 110 nM in test [10]. Further, the EC90 in test [1] came to 1260 nM; in [3], 5770 nM; in test [4] (post-infection treatment assay) it was 410 nM; in test [4] (setting [11]), 540 nM; in [8], 420 nM; in test [10], 1260 nM. The “antiviral activity in cells with OSBP silenced” value in test [2] (OSBP siRNA 20 nM) is “higher”. Further, the “antiviral activity in cells with VAP-A silenced” value in test [2] (VAPA siRNA 20 nM) is “higher”. Besides, the “production of viral progenies” value in test [5] is recorded as “totally inhibit the production of viral progenies”. Further, in [6], the TLR3 expression entry is “marked hyperexpression of TLR3”. Also, the “production of virus progenies” value is “significantly limit (p<0.05) the production of virus progenies” in test [7] (Caco2 cells, pre-treatment 5.6 μM for 20 hours, collected 48 hours after infection); “confirm the in vitro effectiveness” in test [7] (MA104 cells, post-infection treatment 5.6 μM); “significantly limit (p<0.05) the production of virus progenies” in [7] (MA104 cells, pre-treatment 5.6 μM for 20 hours, collected 48 hours after infection). In test [9], the “replication of the genoma of the rhinovirus” value is “able to inhibit replication of the genoma”. The “rhinovirus entry into the host cell” value in test [9] is given as “not entry into the host cell”.
